US20240383954A1, “PEPTIDE INHIBITORS OF INTERLEUKIN-23 RECEPTOR AND THEIR USE TO TREAT INFLAMMATORY DISEASES” (Janssen Biotech, Inc., priority 2020, published 2024)
pIC50: −log10 of the molar value. Like-named read-outs stand apart in the source and are kept apart here. Starred links: 1 amine or outer side, 2 acyl side, 3 side chain; linkers in the order of their positions; H or OH if unused. Positions of bridges follow the written chain, without caps; N, C: chain ends. Non-standard residues stand in square brackets, D forms with d. Residues, ends and D or L forms follow the SMILES beside them. *: point of attachment. Trp(7-Ph) = N[C@@H](Cc1c[nH]c2c(-c3ccccc3)cccc12)C(=O)O; X3 = C[C@H](c1ccc2ccccc2c1)[C@H](N[*:1])C(=O)[*:2]; Trp(7-Me) = Cc1cccc2c(C[C@H](N)C(=O)O)c[nH]c12; Phe(3R-Me) = C[C@H](c1ccccc1)[C@H](N)C(=O)O; Abu(4-yl) = O=C([C@H](CC[*:3])N[*:1])[*:2]; dPhe(4-NH2) = Nc1ccc(C[C@@H](N)C(=O)O)cc1; Phe(4-NH2) = Nc1ccc(C[C@H](N)C(=O)O)cc1; Ac6c(4,4-F2) = NC1(C(=O)O)CCC(F)(F)CC1; 2Nal = N[C@@H](Cc1ccc2ccccc2c1)C(=O)O; AEF = NCCOc1ccc(C[C@H](N)C(=O)O)cc1; αMeF = C[C@](N)(Cc1ccccc1)C(=O)O; Pen = CC(C)(S)[C@H](N)C(=O)O; αMeK = C[C@](N)(CCCCN)C(=O)O; αMeC = C[C@](N)(CS)C(=O)O; Thp = NC1(C(=O)O)CCOCC1; Ac3c = NC1(C(=O)O)CC1; Boc = CC(C)(C)OC(=O)*; Propionyl = CCC(=O)*

Columns and labels:
IL-23R [1] = target: T1, IL-23R (Homo sapiens, UniProt Q5VWK5); experiment: cell-based
T1 sequence (Q5VWK5 24-629): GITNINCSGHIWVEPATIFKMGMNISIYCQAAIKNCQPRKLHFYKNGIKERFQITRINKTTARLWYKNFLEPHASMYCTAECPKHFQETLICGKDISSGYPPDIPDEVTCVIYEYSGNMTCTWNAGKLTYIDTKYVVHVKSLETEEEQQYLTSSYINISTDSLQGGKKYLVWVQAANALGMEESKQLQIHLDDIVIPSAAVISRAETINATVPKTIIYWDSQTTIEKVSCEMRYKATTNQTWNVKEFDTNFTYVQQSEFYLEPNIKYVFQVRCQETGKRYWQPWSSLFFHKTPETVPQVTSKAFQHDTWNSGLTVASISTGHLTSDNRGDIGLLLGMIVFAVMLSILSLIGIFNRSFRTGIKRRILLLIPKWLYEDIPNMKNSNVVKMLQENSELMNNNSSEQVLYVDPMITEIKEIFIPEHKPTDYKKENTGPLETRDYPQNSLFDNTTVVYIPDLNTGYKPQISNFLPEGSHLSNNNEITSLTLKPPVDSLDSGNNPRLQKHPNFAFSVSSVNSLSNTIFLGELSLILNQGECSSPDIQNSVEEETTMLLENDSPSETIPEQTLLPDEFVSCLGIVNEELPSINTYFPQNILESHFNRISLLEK
Description: DB Cells IL23R pSTAT3 Cell Assay
Changes in phospho-STAT3 levels in the cell lysates were detected using the Cisbio HTRF pSTAT3 Cellular Assay Kit, according to manufacturer's Two Plate Assay protocol.

IL-23R [2] = target: T1, IL-23R; experiment: cell-based; details: PBMC pSTAT3 IC50 (nM), PBMCs from healthy donors, IL-23 5 ng/mL, 30 minutes, phosphorylated STAT3
Protocol: Cryopreserved peripheral blood mononuclear cells (PBMCs) from healthy donors were thawed and washed twice in ImmunoCult-XF T cell expansion medium (XF-TCEM) supplemented with CTL anti-aggregate wash. […] The cells were stimulated with cytokine for 30 minutes at 37° C. in 5% CO2, transferred onto ice for 10 minutes, and lysed. Cell lysates were stored at −80° C. until phosphorylated STAT3 was measured using the phospho-STAT panel kit (Meso Scale Discovery, K15202D).

SMILES | pIC50 (IL-23R [1]) | IC50 (IL-23R [2]) [nM]
CC(=O)NCCCC[C@@H]1NC(=O)[C@H](Cc2c[nH]c3c(-c4ccccc4)cccc23)NC(=O)[C@H]([C@@H](C)O)NC(=O)[C@H](CCC(N)=O)NC(=O)[C@@H](NC(=O)[C@@H](CCCNC(=N)N)NC(C)=O)CCSC[C@@H](C(=O)N[C@@H](Cc2ccc(OCCN)cc2)C(=O)N[C@@H](Cc2ccc3ccccc3c2)C(=O)N[C@@](C)(CCCCN)C(=O)N[C@@H](CCCCNC(C)=O)C(=O)N[C@@H](CC(N)=O)C(=O)N[C@@](C)(Cc2ccccc2)C(N)=O)NC1=O [Compound 11, Ac-[(D)Arg]-[Abu]-Q-T-[W(7-Ph)]-[Lys(Ac)]-[Cys]-Phe[4-(2-aminoethoxy)]-[2-Nal]-[a-MeLys]-[Lys(Ac)]-N-[a-MePhe]-NH2] (Ac-[dR][Abu(4-yl)]QT[Trp(7-Ph)]K(Ac)C[AEF][2Nal][αMeK]K(Ac)N[αMeF]-NH2; thioether 2-7) | 7.86 | –
CC(=O)NCCCC[C@@H]1NC(=O)[C@H](Cc2c[nH]c3c(-c4ccccc4)cccc23)NC(=O)[C@H]([C@@H](C)O)NC(=O)[C@H](CCC(N)=O)NC(=O)[C@@H](NC(C)=O)CCSC[C@@H](C(=O)N[C@@H](Cc2ccc(OCCN)cc2)C(=O)N[C@@H](Cc2ccc3ccccc3c2)C(=O)N[C@@](C)(CCCCN)C(=O)N[C@@H](CCCCNC(C)=O)C(=O)N[C@@H](CC(N)=O)C(=O)N[C@@](C)(Cc2ccccc2)C(N)=O)NC1=O [Compound 67, Ac-[Abu]-Q-T-[W(7-Ph)]-[Lys(Ac)]-[Cys]-Phe[4-(2-aminoethoxy)]-[2-Nal]-[a-MeLys]-[Lys(Ac)]-N-[a-MePhe]-NH2] (Ac-[Abu(4-yl)]QT[Trp(7-Ph)]K(Ac)C[AEF][2Nal][αMeK]K(Ac)N[αMeF]-NH2; thioether 1-6) | 8.26 | –
CC(=O)NCCCC[C@@H]1NC(=O)[C@H](Cc2c[nH]c3c(C)cccc23)NC(=O)[C@H]([C@@H](C)O)NC(=O)[C@H](CC(N)=O)NC(=O)[C@@H](NC(C)=O)C(C)(C)SSC(C)(C)[C@@H](C(=O)N[C@@H](Cc2ccc(OCCN)cc2)C(=O)N[C@@H](Cc2ccc3ccccc3c2)C(=O)N[C@@](C)(CCCCN)C(=O)N[C@@H](CCCCNC(C)=O)C(=O)N[C@@H](CC(N)=O)C(=O)N[C@H](CC(C)C)C(=O)N[C@@](C)(Cc2ccccc2)C(N)=O)NC1=O [Compound 68, Ac-[Pen]-N-T-[W(7-Me)]-[Lys(Ac)]-[Pen]-Phe[4-(2-aminoethoxy)]-[2-Nal]-[a-MeLys]-[Lys(Ac)]-N-[(D)Leu]-[aMePhe]-am] | 8.15 | –
CC(=O)NCCCC[C@@H]1NC(=O)[C@H](Cc2c[nH]c3c(C)cccc23)NC(=O)[C@H]([C@@H](C)O)NC(=O)[C@H](CC(N)=O)NC(=O)[C@@H](NC(=O)[C@@H](CCCNC(=N)N)NC(C)=O)C(C)(C)SSC(C)(C)[C@@H](C(=O)N[C@@H](Cc2ccc(OCCN)cc2)C(=O)N[C@@H](Cc2ccc3ccccc3c2)C(=O)NC2(C(=O)N[C@@H](CCC(=O)O)C(=O)N[C@@H](CC(N)=O)C(=O)NC3(C(N)=O)CCOCC3)CCC(F)(F)CC2)NC1=O [Compound 303, MeCO-r-Pen-N-T-7MeW-K(Ac)-Pen-AEF-2Nal-4diFAchx-E-N-THP--CONH2] (Ac-[dR][Pen]NT[Trp(7-Me)]K(Ac)[Pen][AEF][2Nal][Ac6c(4,4-F2)]EN[Thp]-NH2; disulfide 2-7) | – | 1.3
CC(=O)NCCCC[C@@H]1NC(=O)[C@H](Cc2c[nH]c3c(C)cccc23)NC(=O)[C@H]([C@@H](C)O)NC(=O)[C@H](CC(N)=O)NC(=O)[C@@H](N)C(C)(C)SSC(C)(C)[C@@H](C(=O)N[C@@H](Cc2ccc(OCCNC(=O)OC(C)(C)C)cc2)C(=O)N[C@@H](Cc2ccc3ccccc3c2)C(=O)N[C@@](C)(CCCCNC(=O)OC(C)(C)C)C(=O)N[C@@H](CCCCNC(C)=O)C(=O)N[C@@H](CC(N)=O)C(=O)N[C@@](C)(Cc2ccccc2)C(N)=O)NC1=O [Compound 304, NH2--Pen-N-T-7MeW-K(Ac)-Pen-AEF(Boc)-2Nal-aMeK(Boc)-K(Ac)-N-aMePhe-CONH2] | – | 28
CC(=O)NCCCC[C@@H]1NC(=O)[C@H](Cc2c[nH]c3c(C)cccc23)NC(=O)[C@H]([C@@H](C)O)NC(=O)[C@H](CC(N)=O)NC(=O)[C@@H](NC(=O)[C@H](N)CCCNC(=N)N)C(C)(C)SSC(C)(C)[C@@H](C(=O)N[C@@H](Cc2ccc(OCCNC(=O)OC(C)(C)C)cc2)C(=O)N[C@@H](Cc2ccc3ccccc3c2)C(=O)NC2(C(=O)N[C@@H](CCC(=O)O)C(=O)N[C@@H](CC(N)=O)C(=O)N[C@@](C)(Cc3ccccc3)C(N)=O)CCOCC2)NC1=O [Compound 305, NH2-r-Pen-N-T-7MeW-K(Ac)-Pen-AEF(Boc)-2Nal-THP-E-N-aMePhe-CONH2] (H-[dR][Pen]NT[Trp(7-Me)]K(Ac)[Pen][AEF](Boc)[2Nal][Thp]EN[αMeF]-NH2; disulfide 2-7) | – | 17
CC(=O)Nc1ccc(C[C@@H]2NC(=O)[C@H](Cc3c[nH]c4c(C)cccc34)NC(=O)[C@H]([C@@H](C)O)NC(=O)[C@H](CC(N)=O)NC(=O)[C@@H](NC(=O)[C@@H](CCCNC(=N)N)NC(C)=O)C(C)(C)SSC(C)(C)[C@@H](C(=O)N[C@@H](Cc3ccc(OCCN)cc3)C(=O)N[C@@H](Cc3ccc4ccccc4c3)C(=O)NC3(C(=O)N[C@@H](CCC(=O)O)C(=O)N[C@@H](CC(N)=O)C(=O)NC4(C(N)=O)CCOCC4)CC3)NC2=O)cc1 [Compound 306, MeCO-r-Pen-N-T-7MeW-Paf(Ac)-Pen-AEF-2Nal-Acpx-E-N-THP---CONH2] (Ac-[dR][Pen]NT[Trp(7-Me)][Phe(4-NH2)](Ac)[Pen][AEF][2Nal][Ac3c]EN[Thp]-NH2; disulfide 2-7) | – | 9.6
CCC(=O)N[C@H](CCCNC(=N)N)C(=O)N[C@@H]1C(=O)N[C@@H](CCC(N)=O)C(=O)N[C@@H]([C@@H](C)O)C(=O)N[C@@H](Cc2c[nH]c3ccccc23)C(=O)N[C@@H](CCC(N)=O)C(=O)N[C@H](C(=O)N[C@@H](Cc2ccc(OCCN)cc2)C(=O)N[C@H](C(=O)NC2(C(=O)N[C@@H](CCC(=O)O)C(=O)N[C@@H](CC(N)=O)C(=O)NC3(C(N)=O)CCOCC3)CCOCC2)[C@H](C)c2ccc3ccccc3c2)C(C)(C)SSC1(C)C [Compound 307, EtCO-r-Pen-Q-T-W-Q-Pen-AEF-bMe2Nal(2S,3R)-THP-E-N-THP---CONH2] (Propionyl-[dR][Pen]QTWQ[Pen][AEF][X3][Thp]EN[Thp]-NH2; disulfide 2-7) | – | 52
CC(=O)NCCCC[C@@H]1NC(=O)[C@H](Cc2c[nH]c3c(C)cccc23)NC(=O)[C@H]([C@@H](C)O)NC(=O)[C@H](CC(N)=O)NC(=O)[C@@H](NC(=O)[C@@H](CCCNC(=N)N)NC(C)=O)C(C)(C)SSC(C)(C)[C@@H](C(=O)N[C@@H](Cc2ccc(OCCNC(C)=O)cc2)C(=O)N[C@@H](Cc2ccc3ccccc3c2)C(=O)NC2(C(=O)N[C@@H](CCC(=O)O)C(=O)N[C@@H](CC(N)=O)C(=O)NC3(C(N)=O)CCOCC3)CC2)NC1=O [Compound 308, MeCO-r-Pen-N-T-7MeW-K(Ac)-Pen-AEF(Ac)-2Nal-Acpx-E-N-THP-CONH2] (Ac-[dR][Pen]NT[Trp(7-Me)]K(Ac)[Pen][AEF](Ac)[2Nal][Ac3c]EN[Thp]-NH2; disulfide 2-7) | – | 8
CC(=O)NCCCC[C@@H]1NC(=O)[C@H](Cc2c[nH]c3c(C)cccc23)NC(=O)[C@H]([C@@H](C)O)NC(=O)[C@H](CC(N)=O)NC(=O)[C@@H](NC(=O)[C@@H](CCCNC(=N)N)NC(C)=O)CSSC[C@@](C)(C(=O)N[C@@H](Cc2ccc(OCCN)cc2)C(=O)N[C@@H](Cc2ccc3ccccc3c2)C(=O)NC2(C(=O)N[C@@H](CCC(=O)O)C(=O)N[C@@H](CC(N)=O)C(=O)NC3(C(N)=O)CCOCC3)CC2)NC1=O [Compound 310, MeCO-r-C-N-T-7MeW-K(Ac)- aMeC-AEF-2Nal-Acpx-E-N-THP-CONH2] (Ac-[dR]CNT[Trp(7-Me)]K(Ac)[αMeC][AEF][2Nal][Ac3c]EN[Thp]-NH2; disulfide 2-7) | – | 9.9
CC(=O)NCCCC[C@@H]1NC(=O)[C@H](Cc2c[nH]c3c(C)cccc23)NC(=O)[C@H]([C@@H](C)O)NC(=O)[C@H](CC(N)=O)NC(=O)[C@@H](NC(C)=O)C(C)(C)SSC(C)(C)[C@@H](C(=O)N[C@@H](Cc2ccc(OCCN)cc2)C(=O)N[C@@H](Cc2ccc3ccccc3c2)C(=O)N[C@@](C)(CCCCN)C(=O)N[C@@H](CCCCNC(C)=O)C(=O)N[C@@H](CC(N)=O)C(=O)N[C@H](C(N)=O)[C@H](C)c2ccccc2)NC1=O [Compound 312, MeCO-Pen-N-T-7MeTrp-K(Ac)-Pen-AEF-2Nal-aMeK-K(Ac)-N-bMePhe(S,R)-CONH2] | – | 90
CC(=O)NCCCC[C@@H]1NC(=O)[C@H](Cc2c[nH]c3c(C)cccc23)NC(=O)[C@H]([C@@H](C)O)NC(=O)[C@H](CC(N)=O)NC(=O)[C@@H](NC(=O)[C@@H](CCCNC(=N)N)NC(C)=O)C(C)(C)SSC(C)(C)[C@@H](C(=O)N[C@@H](Cc2ccc(OCCN)cc2)C(=O)N[C@@H](Cc2ccc3ccccc3c2)C(=O)NC2(C(=O)N[C@@H](CCC(=O)O)C(=O)N[C@@H](CC(N)=O)C(=O)N[C@H](C(N)=O)[C@H](C)c3ccccc3)CCOCC2)NC1=O [Compound 313, MeCO-r-Pen-N-T-7MeTrp-K(Ac)-Pen-AEF-2Nal-THP-E-N-bMePhe(S,R)---CONH2] (Ac-[dR][Pen]NT[Trp(7-Me)]K(Ac)[Pen][AEF][2Nal][Thp]EN[Phe(3R-Me)]-NH2; disulfide 2-7) | – | 21
CC(=O)NCCCC[C@@H]1NC(=O)[C@H](Cc2c[nH]c3c(C)cccc23)NC(=O)[C@H]([C@@H](C)O)NC(=O)[C@H](CC(N)=O)NC(=O)[C@@H](NC(=O)[C@@H](CCCNC(=N)N)NC(C)=O)C(C)(C)SSC(C)(C)[C@@H](C(=O)N[C@@H](Cc2ccc(OCCN)cc2)C(=O)N[C@@H](Cc2ccc3ccccc3c2)C(=O)NC2(C(=O)N[C@@H](CCC(=O)O)C(=O)N[C@@H](CC(N)=O)C(=O)N[C@@H](Cc3c[nH]cn3)C(=O)N[C@H](Cc3ccc(N)cc3)C(N)=O)CC2)NC1=O [Compound 315, MeCO-r-Pen-N-T-7MeW-K(Ac)-Pen-AEF-2Nal-Acpx-E-N-H-4AmDPhe---CONH2] (Ac-[dR][Pen]NT[Trp(7-Me)]K(Ac)[Pen][AEF][2Nal][Ac3c]ENH[dPhe(4-NH2)]-NH2; disulfide 2-7) | – | 2
CC(=O)NCCCC[C@@H]1NC(=O)[C@H](Cc2c[nH]c3c(C)cccc23)NC(=O)[C@H]([C@@H](C)O)NC(=O)[C@H](CC(N)=O)NC(=O)[C@@H](NC(C)=O)C(C)(C)SSC(C)(C)[C@@H](C(=O)N[C@@H](Cc2ccc(OCCN)cc2)C(=O)N[C@@H](Cc2ccc3ccccc3c2)C(=O)NC2(C(=O)N[C@@H](CCC(=O)O)C(=O)N[C@@H](CC(N)=O)C(=O)NC3(C(N)=O)CCOCC3)CC2)NC1=O [Compound 317, MeCO-Pen-N-T-7MeW-K(Ac)-Pen-AEF-2Nal-Acpx-E-N-THP---CONH2] | – | 13
